System: collagen type I alpha I chain (COL1A1) gene, normal human dermal fibroblasts (NHDF)
Assay: Fold change in gene expression of COL1A1 in normal human dermal fibroblasts (qPCR, normalized to ACTB)
Assay type: cell-based
Settings: 48 hours, relative to blank control (1.0)
Method: The normal human dermal fibroblasts (NHDF) (Biocell, Xi'an, China, Lot: Fb20081902) were incubated in medium together with or without actives for 48 hours. After incubation, the total RNA for each NHDF was extracted using RNAex Pro reagent (Accurate Biotechnology, Cat: AG21102) according to manufacturer's protocol.
The extracted RNA was quantified using Nanodrop spectrometer (Thermo Fisher Scientific, Waltham, MA, US) and reverse transcribed to generate the template cDNA using the Evo M-MLV RT Premix for qPCR (Accurate Biotechnology, Cat: AG11706) according to manufacturer's protocol. Gene expression of COL1A1 gene was analyzed by polymerase chain reaction (PCR) using SYBR® Green Premix Pro Taq HS qPCR Kit (Accurate Biotechnology, AG11701). The actin beta (ACTB) gene was selected as the housekeeping gene and all data on relative expression of the target genes was normalized to ACTB gene. The fold changes in expression were calculated relative to the blank control (medium having no active).

Compound	Fold change of COL1A1 expression (1 μM of RP (group B))	Fold change of COL1A1 expression (10 μM of RP (group E))	Fold change of COL1A1 expression (5 μM of LCC (group D))	Fold change of COL1A1 expression (10 μM of LCC (group G))	Fold change of COL1A1 expression (50 μM of LCC (group A))
CCC(=O)OC/C=C(C)/C=C/C=C(C)/C=C/C1=C(C)CCCC1(C)C [RP, Retinyl propionate]	1.4 fold change	1.5 fold change	–	–	–
Lysine carboxymethyl cysteinate [LCC]	–	–	1.4 fold change	1.5 fold change	1.3 fold change

Reference: US20260373038A1, “A PERSONAL CARE COMPOSITION” (Conopco, Inc., d/b/a UNILEVER, priority 2022, published 2026)
